Source: US10323038B2, “Pyrazole compounds and methods of making and using same” (ABIDE THERAPEUTICS, INC., priority 2015, dated 2019)

Columns and labels:
FAAH = FAAH (Mus musculus (Mouse), UniProt O08914); assay: In vitro competitive activity-based protein profiling, FAAH (mouse); format: biochemical; settings: for inhibition at 1 µM: read-out: FAAH % inh. 1 μM (mouse)
Description: (§1) In Vitro Competitive Activity-Based Protein Profiling.
(§2) Proteomes (mouse brain membrane fraction or cell lysates for mouse assays; human prefrontal cortex or cell membrane fractions for human assays) (50 μL, 1.0 mg/mL total protein concentration) were preincubated with varying concentrations of inhibitors at 37° C. After 30 min, FP—Rh or HT-01 (1.0 μL, 50 μM in DMSO) was added and the mixture was incubated for another 30 min at 37° C. Reactions were quenched with SDS loading buffer (15 μL-4×) and run on SDS-PAGE. Following gel imaging, serine hydrolase activity was determined by measuring fluorescent intensity of gel bands corresponding to MAGL and FAAH using ImageJ 1.43u software.

MAGL = MAGL (Mus musculus (Mouse), UniProt O35678); assay: In vitro competitive activity-based protein profiling, MAGL (mouse); format: biochemical; settings: for inhibition at 1 µM: read-out: MAGL % inh. 1 μM (mouse)
Description: as §1, §2

Chain of FAAH (O08914 whole entry): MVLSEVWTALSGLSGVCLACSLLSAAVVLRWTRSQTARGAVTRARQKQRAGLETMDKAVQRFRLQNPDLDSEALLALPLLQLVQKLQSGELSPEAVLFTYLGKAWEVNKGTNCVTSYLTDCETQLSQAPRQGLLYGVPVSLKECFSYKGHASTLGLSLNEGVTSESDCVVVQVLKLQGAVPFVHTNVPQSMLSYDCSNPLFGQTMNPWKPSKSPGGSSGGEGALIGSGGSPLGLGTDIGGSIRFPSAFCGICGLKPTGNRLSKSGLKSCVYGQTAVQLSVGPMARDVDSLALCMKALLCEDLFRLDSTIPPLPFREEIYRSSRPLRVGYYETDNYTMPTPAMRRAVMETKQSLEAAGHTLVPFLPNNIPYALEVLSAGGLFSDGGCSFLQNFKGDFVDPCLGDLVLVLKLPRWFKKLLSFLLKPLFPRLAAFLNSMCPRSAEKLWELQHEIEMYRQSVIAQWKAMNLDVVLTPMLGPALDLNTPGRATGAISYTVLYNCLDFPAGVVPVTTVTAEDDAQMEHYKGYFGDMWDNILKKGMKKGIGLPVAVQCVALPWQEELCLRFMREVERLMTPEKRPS
Chain of MAGL (O35678 whole entry): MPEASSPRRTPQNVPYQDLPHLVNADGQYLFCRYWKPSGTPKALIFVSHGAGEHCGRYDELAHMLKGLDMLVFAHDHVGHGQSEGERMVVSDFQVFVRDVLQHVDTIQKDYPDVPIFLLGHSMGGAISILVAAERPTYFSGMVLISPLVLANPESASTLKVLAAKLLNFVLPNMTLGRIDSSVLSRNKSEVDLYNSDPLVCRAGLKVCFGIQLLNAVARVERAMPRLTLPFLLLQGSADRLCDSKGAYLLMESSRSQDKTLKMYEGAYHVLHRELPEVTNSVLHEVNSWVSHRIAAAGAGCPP

Compound	inhibition at 1 µM (FAAH) [%]	inhibition at 1 µM (MAGL) [%]	IC50 (FAAH) [nM]	IC50 (MAGL) [nM]
CC(=O)N(C)c1cnn(C(=O)N2CC3CN(Cc4ccc(Oc5ccnnc5)cc4C(F)(F)F)CC3C2)c1 (centres unmarked) [Example 258, N-methyl-N-(1-(5-(4-(pyridazin-4-yloxy)-2-(trifluoromethyl)benzyl)octahydropyrrolo [3,4-c]pyrrole-2-carbonyl)-1H-pyrazol-4-yl)acetamide]	≥ 75	≥ 75		
CN(Cc1ccccc1C(F)(F)F)[C@H]1C[C@@H]2CN(C(=O)n3cc(NS(C)(=O)=O)cn3)C[C@@H]2C1 [Example 299, N-(1-(trans-5-(methyl(2-(trifluoromethyl)benzyl)amino)octahydrocyclopenta[c]pyrrole-2-carbonyl)-1H-pyrazol-4-yl)methanesulfonamide]	≥ 75	≥ 75		
CC(=O)N(C)c1cnn(C(=O)N2CC3CN(Cc4ccccc4F)CC3C2)c1 (centres unmarked) [Example 182, N-(1-(5-(2-fluorobenzyl)octahydropyrrolo[3,4-c]pyrrole-2-carbonyl)-1H-pyrazol-4-yl)-N-methylacetamide]	≥ 75	≥ 75	≤ 100	100 to 1000
CC(=O)N(C)c1cnn(C(=O)N2CC3CN(Cc4cccc(F)c4)CC3C2)c1 (centres unmarked) [Example 180, N-(1-(5-(3-fluorobenzyl)octahydropyrrolo[3,4-c]pyrrole-2-carbonyl)-1H-pyrazol-4-yl)-N-methylacetamide]	≥ 75	50 to 75	100 to 1000	100 to 1000
CC(=O)N(C)c1cnn(C(=O)N2CCC3(CC2)CN(Cc2ccc(N4CCOCC4)cc2C)C3)c1 [Example 29, N-methyl-N-(1-(2-(2-methyl-4-morpholinobenzyl)-2,7-diazaspiro[3.5]nonane-7-carbonyl)-1H-pyrazol-4-yl)acetamide]	25 to 50	≥ 75		
CC(=O)N(C)c1cnn(C(=O)N2CC3CN(Cc4ccc(N5C6CCC5COC6)cc4C(F)(F)F)CC3C2)c1 (centres unmarked) [Example 102, N-(1-(5-(4-(3-oxa-8-azabicyclo[3.2.1]octan-8-yl)-2-(trifluoromethyl)benzyl)octahydropyrrolo[3,4-c]pyrrole-2-carbonyl)-1H-pyrazol-4-yl)-N-methylacetamide]	≥ 75	≥ 75		
CS(=O)(=O)Nc1cnn(C(=O)N2CC3CN(Cc4ccc(Cl)cc4)CC3C2)c1 (centres unmarked) [Example 8, N-(1-(5-(4-chlorobenzyl)octahydropyrrolo[3,4-c]pyrrole-2-carbonyl)-1H-pyrazol-4-yl)methanesulfonamide]	≥ 75	0 to 25	100 to 1000	1000 to 10000
CC(=O)N(C)c1cnn(C(=O)N2CC3CN(Cc4c(Cl)cccc4Cl)CC3C2)c1 (centres unmarked) [Example 111, N-(1-(5-(2,6-dichlorobenzyl)octahydropyrrolo[3,4-c]pyrrole-2-carbonyl)-1H-pyrazol-4-yl)-N-methylacetamide]	≥ 75	≥ 75	≤ 100	≤ 100
CS(=O)(=O)Nc1cnn(C(=O)N2CCC3(CC2)CN(Cc2ccc(N4CCCC4)cc2C(F)(F)F)C3)c1 [Example 281, N-(1-(2-(4-(pyrrolidin-1-yl)-2-(trifluoromethyl)benzyl)-2,7-diazaspiro[3.5]nonane-7-carbonyl)-1H-pyrazol-4-yl)methanesulfonamide]	≥ 75	≥ 75		
CC(=O)N(C)c1cnn(C(=O)N2CC3CN(Cc4ccc(OC5CCN(C6CC6)CC5)cc4C(F)(F)F)CC3C2)c1 (centres unmarked) [Example 271, N-(1-(5-(4-((1-cyclopropylpiperidin-4-yl)oxy)-2-(trifluoromethyl)benzyl)octahydropyrrolo [3,4-c]pyrrole-2-carbonyl)-1H-pyrazol-4-yl)-N-methylacetamide]	≥ 75	≥ 75		
CS(=O)(=O)Nc1cnn(C(=O)N2CCC3(CCN(Cc4cc(Cl)cc(C(F)(F)F)c4)C3)C2)c1 (centres unmarked) [Example 286, N-(1-(7-(3-chloro-5-(trifluoromethyl)benzyl)-2,7-diazaspiro[4.4]nonane-2-carbonyl)-1H-pyrazol-4-yl)methanesulfonamide]	≥ 75	25 to 50		

The next lines start with the values.

inhibition at 1 µM (FAAH) [%]	inhibition at 1 µM (MAGL) [%]	IC50 (FAAH) [nM]	IC50 (MAGL) [nM]	Compound
≥ 75	≥ 75			CN(Cc1cc(Cl)ccc1C(F)(F)F)[C@H]1C[C@@H]2CN(C(=O)n3cc(NS(C)(=O)=O)cn3)C[C@@H]2C1 [Example 278, N-(1-[[trans-5-([[5-chloro-2-(trifluoromethyl)phenyl]methyl](methyl)amino)-octahydrocyclopenta[c]pyrrol-2-yl)carbonyl]-1H-pyrazol-4-yl)methanesulfonamide]
≥ 75	50 to 75			CC(=O)N(C)c1cnn(C(=O)N2CC3(CCN(Cc4cccc(C(F)(F)F)c4)CC3)C2)c1 [Example 88, N-methyl-N-(1-(7-(3-(trifluoromethyl)benzyl)-2,7-diazaspiro[3.5]nonane-2-carbonyl)-1H-pyrazol-4-yl)acetamide]
25 to 50	≥ 75	100 to 1000	≤ 100	CC(=O)N(C)c1cnn(C(=O)N2CCN(Cc3ccc(C(F)(F)F)cc3N3CCCC3)CC2)c1 [Example 191, N-methyl-N-(1-(4-(2-(pyrrolidin-1-yl)-4-(trifluoromethyl)benzyl)piperazine-1-carbonyl)-1H-pyrazol-4-yl)acetamide]
		≤ 100	100 to 1000	CC(=O)N(C)c1cnn(C(=O)N2CCC3(CCN(Cc4cccc(C(F)(F)F)c4)C3)C2)c1 (single isomer, unassigned) [Example 66, N-methyl-N-(1-(7-(3-(trifluoromethyl)benzyl)-2,7-diazaspiro[4.4]nonane-2-carbonyl)-1H-pyrazol-4-yl)acetamide]
≥ 75	≥ 75			CC(=O)N(C)c1cnn(C(=O)N2C[C@H]3C[C@H](N(C)Cc4cc(N5CCCC5)ccc4C(F)(F)F)C[C@H]3C2)c1 [Example 142, N-methyl-N-(1-(trans-5-(methyl(5-(pyrrolidin-1-yl)-2-(trifluoromethyl)benzyl)amino)octahydrocyclopenta[c]pyrrole-2-carbonyl)-1H-pyrazol-4-yl)acetamide]
≥ 75	≥ 75	≤ 100	≤ 100	CC(=O)N(C)c1cnn(C(=O)N2CC3CN(Cc4cc(N5CCCC5)cc(C(F)(F)F)c4)CC3C2)c1 (centres unmarked) [Example 112, N-methyl-N-(1-(5-(3-(pyrrolidin-1-yl)-5-(trifluoromethyl)benzyl)octahydropyrrolo[3,4-c]pyrrole-2-carbonyl)-1H-pyrazol-4-yl)acetamide]
≥ 75	≥ 75			CC(=O)N(C)c1cnn(C(=O)N2C[C@H]3C[C@@H](N(C)Cc4cc(N5CCCC5)ccc4C(F)(F)F)C[C@H]3C2)c1 [Example 167, N-methyl-N-(1-(cis-5-(methyl(5-(pyrrolidin-1-yl)-2-(trifluoromethyl)benzyl)amino)octahydrocyclopenta[c]pyrrole-2-carbonyl)-1H-pyrazol-4-yl)acetamide]
25 to 50	25 to 50			CC(=O)N(C)c1cnn(C(=O)N2CC3(CCN(Cc4ccccc4C)CC3)C2)c1 [Example 89, N-methyl-N-(1-(7-(2-methylbenzyl)-2,7-diazaspiro[3.5]nonane-2-carbonyl)-1H-pyrazol-4-yl)acetamide]
